Where two headings read alike, the source gives them in different places.
How the values were obtained:
[1] = target: human EGFR (native sequence) (Homo sapiens, UniProt P00533); test: Kinase inhibitory activity against human EGFR (native sequence); assay type: biochemical; settings: 10 μM ATP, read-out: IC50 for kinase inhibition, EGFR
Method: (§1) Kinase inhibitory activity of the compounds was measured against human EGFR (native sequence) and against EGFR bearing the L858R mution and the L858R/T790M double mutation (EGFR, L858R, and L858R/T790M, respectively in Table 1). Additional assays can be conducted with EGFR deletion mutants such as delE746-A750 with or without the additional T790M mutation. Assay conditions included 10 pt curves with 3 μM top concentration (singlicates) and 10 μM ATP.

EGFR L858R = EGFR L858R (Homo sapiens, UniProt P00533, L858R); test: Kinase inhibitory activity against EGFR bearing the L858R mutation; assay type: biochemical; settings: 10 μM ATP, read-out: IC50 for kinase inhibition, EGFR L858R
Method: as §1

EGFR L858R/T790M = EGFR L858R/T790M (Homo sapiens, UniProt P00533, L858R/T790M); test: Kinase inhibitory activity against EGFR bearing the L858R/T790M double mutation; assay type: biochemical; settings: 10 μM ATP, read-out: IC50 for kinase inhibition, EGFR L858R T790M
Sequence of EGFR L858R/T790M (P00533 25-1210 T790M/L858R): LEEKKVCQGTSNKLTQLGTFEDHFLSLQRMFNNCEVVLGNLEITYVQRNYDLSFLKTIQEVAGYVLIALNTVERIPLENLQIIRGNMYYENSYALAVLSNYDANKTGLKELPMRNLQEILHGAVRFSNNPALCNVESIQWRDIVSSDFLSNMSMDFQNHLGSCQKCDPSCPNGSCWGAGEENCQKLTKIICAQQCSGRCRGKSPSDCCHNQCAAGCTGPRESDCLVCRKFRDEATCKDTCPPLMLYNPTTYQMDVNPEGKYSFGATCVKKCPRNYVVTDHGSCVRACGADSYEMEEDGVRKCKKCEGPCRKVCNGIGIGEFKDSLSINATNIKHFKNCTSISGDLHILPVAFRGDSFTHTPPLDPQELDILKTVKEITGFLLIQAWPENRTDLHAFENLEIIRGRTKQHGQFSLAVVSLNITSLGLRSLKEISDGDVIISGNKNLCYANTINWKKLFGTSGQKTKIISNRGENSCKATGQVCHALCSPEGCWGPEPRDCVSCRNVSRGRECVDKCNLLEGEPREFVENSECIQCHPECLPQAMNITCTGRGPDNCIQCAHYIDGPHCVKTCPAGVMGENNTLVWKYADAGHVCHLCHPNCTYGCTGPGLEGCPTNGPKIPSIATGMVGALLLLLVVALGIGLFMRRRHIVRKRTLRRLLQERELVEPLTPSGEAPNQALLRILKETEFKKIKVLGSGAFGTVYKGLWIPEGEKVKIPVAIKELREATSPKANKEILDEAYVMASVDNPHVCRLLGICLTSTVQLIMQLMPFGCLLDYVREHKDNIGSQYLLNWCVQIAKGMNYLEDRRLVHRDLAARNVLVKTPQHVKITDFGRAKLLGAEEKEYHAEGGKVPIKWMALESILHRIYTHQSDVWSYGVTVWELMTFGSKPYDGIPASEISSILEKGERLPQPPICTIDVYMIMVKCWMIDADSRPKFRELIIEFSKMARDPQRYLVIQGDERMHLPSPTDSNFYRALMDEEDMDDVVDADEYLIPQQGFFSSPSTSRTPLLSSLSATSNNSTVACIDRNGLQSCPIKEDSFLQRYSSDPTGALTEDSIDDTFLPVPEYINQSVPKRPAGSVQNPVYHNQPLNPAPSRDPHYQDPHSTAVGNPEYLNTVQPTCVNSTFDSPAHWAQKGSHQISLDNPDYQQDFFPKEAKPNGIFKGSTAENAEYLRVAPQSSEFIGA
Method: as §1

[2] = target: T1, BaF3 cells expressing the target EGFR mutations (Homo sapiens, UniProt P00533, T790M, cells depend on it, form not given); test: Antiproliferative activity (MTT) against BaF3 cells expressing the target EGFR mutations; assay type: cell-based; settings: BAF3 EGFR DEL T790M PURO POOL cells, read-out: IC50, BAF3 EGFR DEL T790M PURO POOL
T1 construct: IC50, BAF3 EGFR DEL T790M PURO POOL; other: BAF3 EGFR DEL T790M PURO POOL cells, MTT; other: BAF3 EGFR DEL T790M PURO POOL cells; MTT
T1 sequence (P00533 with tags, fused parts or gaps DEL746-750/T790M, form open): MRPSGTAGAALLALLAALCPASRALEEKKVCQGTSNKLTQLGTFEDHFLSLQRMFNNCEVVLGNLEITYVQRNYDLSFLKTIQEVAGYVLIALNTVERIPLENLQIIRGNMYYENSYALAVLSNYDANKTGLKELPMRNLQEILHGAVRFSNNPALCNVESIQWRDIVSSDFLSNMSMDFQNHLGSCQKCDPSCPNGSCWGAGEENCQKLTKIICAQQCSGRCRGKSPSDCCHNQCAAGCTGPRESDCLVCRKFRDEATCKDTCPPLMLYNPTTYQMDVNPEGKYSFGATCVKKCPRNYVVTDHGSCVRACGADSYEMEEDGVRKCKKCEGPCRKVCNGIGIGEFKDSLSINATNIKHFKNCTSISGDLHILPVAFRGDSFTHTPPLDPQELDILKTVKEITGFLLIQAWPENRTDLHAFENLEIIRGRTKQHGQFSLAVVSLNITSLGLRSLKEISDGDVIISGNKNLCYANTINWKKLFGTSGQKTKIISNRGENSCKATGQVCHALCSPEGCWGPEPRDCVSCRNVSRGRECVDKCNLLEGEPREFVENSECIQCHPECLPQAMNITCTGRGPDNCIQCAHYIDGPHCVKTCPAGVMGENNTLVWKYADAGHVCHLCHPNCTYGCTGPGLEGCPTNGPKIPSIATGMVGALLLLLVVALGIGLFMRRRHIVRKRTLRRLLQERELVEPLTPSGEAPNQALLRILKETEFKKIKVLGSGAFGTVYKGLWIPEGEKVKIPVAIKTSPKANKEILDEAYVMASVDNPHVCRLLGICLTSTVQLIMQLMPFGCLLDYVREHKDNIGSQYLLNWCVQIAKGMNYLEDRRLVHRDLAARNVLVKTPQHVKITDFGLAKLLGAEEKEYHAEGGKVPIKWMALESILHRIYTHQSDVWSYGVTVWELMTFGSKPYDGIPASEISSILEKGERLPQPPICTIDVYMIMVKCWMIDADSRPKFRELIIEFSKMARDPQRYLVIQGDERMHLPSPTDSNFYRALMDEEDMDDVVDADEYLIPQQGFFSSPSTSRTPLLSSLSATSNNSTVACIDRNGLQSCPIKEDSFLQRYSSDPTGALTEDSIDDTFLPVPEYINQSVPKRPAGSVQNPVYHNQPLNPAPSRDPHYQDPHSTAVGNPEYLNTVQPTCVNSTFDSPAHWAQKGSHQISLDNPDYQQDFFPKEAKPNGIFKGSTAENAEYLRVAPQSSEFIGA
Method: (§2) We also assessed the antiproliferative activity of compounds of Formula (I) against BaF3 cells expressing the target EGFR mutations or control (i.e., cell lines expressing wildtype EGFR). Assays were conducted using MTT.

[3] = target: T2, BaF3 cells expressing the target EGFR mutations (Homo sapiens, UniProt P00533, T790M/L858R, cells depend on it); test: as above; assay type: cell-based; settings: BAF3 EGFR L858R-T790M PURO POOL cells, read-out: IC50, BAF3 EGFR L858R-T790M PURO POOL
T2 construct: IC50, BAF3 EGFR L858R-T790M PURO POOL; other: BAF3 EGFR L858R-T790M PURO POOL cells, MTT; IC50, BAF3 EGFR L858R-T790M PURO POOL; other: BAF3 EGFR L858R-T790M PURO POOL cells; MTT
T2 sequence (P00533 whole entry T790M/L858R): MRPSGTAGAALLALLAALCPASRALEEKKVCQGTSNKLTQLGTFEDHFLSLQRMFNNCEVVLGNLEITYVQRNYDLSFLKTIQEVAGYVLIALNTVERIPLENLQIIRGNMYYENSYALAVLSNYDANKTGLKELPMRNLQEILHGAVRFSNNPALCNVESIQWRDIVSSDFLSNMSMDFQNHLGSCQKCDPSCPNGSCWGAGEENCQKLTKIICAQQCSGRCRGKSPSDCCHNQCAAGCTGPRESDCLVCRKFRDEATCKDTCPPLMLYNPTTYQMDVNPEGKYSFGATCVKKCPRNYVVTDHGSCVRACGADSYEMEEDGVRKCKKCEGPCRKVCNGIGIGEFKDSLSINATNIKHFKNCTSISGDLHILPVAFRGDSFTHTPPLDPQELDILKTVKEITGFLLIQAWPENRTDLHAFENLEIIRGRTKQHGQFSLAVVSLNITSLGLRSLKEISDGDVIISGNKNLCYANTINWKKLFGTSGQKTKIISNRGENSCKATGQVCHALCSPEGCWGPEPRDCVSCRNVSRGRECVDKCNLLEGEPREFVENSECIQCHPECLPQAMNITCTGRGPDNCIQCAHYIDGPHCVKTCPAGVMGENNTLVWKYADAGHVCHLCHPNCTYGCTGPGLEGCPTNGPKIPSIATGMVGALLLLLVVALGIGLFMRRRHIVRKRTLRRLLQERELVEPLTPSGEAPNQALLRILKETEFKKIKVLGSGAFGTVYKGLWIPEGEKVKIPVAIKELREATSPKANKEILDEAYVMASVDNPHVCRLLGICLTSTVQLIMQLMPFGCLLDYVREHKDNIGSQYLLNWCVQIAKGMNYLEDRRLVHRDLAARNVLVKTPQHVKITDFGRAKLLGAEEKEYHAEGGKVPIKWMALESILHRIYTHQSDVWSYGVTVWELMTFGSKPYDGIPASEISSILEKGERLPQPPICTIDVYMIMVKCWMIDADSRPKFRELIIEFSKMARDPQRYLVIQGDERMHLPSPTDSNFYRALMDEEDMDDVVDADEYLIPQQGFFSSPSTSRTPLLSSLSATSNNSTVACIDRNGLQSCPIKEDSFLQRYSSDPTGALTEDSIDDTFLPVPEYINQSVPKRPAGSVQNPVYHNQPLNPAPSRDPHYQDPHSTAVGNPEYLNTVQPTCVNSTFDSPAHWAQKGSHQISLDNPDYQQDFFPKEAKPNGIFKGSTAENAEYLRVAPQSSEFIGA
Method: as §2

[4] = test system: BaF3 cells expressing wildtype EGFR; test: Antiproliferative activity (MTT) against control BaF3 cells expressing wildtype EGFR; assay type: cell-based
Method: as §2

[5] = EGFR L858R/T790M double mutation
[6] = Mus musculus, BAF3 PARENTAL cells (control)
[7] = 10 pt curves, 3 μM top concentration
[8] = Mus musculus, BAF3 parental cells

Sequence of human EGFR (native sequence) (P00533 25-1210): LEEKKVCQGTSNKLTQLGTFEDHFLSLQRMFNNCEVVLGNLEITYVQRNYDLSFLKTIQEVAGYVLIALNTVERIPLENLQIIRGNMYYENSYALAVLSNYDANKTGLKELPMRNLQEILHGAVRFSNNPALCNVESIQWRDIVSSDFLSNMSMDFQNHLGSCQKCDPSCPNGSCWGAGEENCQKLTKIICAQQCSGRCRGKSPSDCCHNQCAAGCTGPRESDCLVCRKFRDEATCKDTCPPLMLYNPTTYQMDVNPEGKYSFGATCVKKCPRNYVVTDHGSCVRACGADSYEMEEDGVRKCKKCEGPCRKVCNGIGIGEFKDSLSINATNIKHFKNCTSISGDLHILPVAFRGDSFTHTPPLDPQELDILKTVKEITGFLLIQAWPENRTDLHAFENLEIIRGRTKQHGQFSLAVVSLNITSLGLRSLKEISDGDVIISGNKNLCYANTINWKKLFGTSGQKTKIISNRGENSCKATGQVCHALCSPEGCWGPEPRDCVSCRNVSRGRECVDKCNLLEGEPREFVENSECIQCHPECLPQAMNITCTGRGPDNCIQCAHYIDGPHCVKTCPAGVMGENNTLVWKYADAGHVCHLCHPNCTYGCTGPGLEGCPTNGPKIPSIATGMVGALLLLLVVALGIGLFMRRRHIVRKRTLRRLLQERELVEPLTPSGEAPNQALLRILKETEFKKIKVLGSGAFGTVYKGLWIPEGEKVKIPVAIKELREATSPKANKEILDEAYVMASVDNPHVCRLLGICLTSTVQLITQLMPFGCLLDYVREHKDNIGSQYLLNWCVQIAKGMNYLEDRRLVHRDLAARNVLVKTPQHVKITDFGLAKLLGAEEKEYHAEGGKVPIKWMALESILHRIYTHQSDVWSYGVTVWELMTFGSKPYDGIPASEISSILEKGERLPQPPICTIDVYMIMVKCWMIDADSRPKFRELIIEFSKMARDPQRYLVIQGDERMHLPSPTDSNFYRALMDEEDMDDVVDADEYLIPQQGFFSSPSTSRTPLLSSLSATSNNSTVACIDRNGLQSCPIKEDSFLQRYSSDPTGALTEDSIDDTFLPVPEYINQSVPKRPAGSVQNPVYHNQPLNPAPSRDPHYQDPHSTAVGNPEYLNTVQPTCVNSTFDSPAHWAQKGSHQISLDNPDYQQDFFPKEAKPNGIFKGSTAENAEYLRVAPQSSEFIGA

IC50 ([1]; human EGFR native sequence)	IC50 (EGFR L858R; EGFR L858R)	IC50 (EGFR L858R/T790M; [5])	GI50 [2]	GI50 [3]	IC50 [1, 7]	IC50 (EGFR L858R; [7])	IC50 (EGFR L858R/T790M; [7])	Compound	IC50 [4, 6]	IC50 [4, 8]	IC50 ([4]; BAF3 parental cells)
< 50 nM	< 50 nM	< 50 nM	101 to 250 nM	≥ 250 nM	–	–	–	C=C(CN1CCNC(=O)C1)C(=O)Nc1ccc(OC)c(Nc2ncc(Cl)c(Nc3ccccc3P(C)(C)=O)n2)c1 [Example 47, N-(3-((5-chloro-4-((2-(dimethylphosphoryl)phenyl)amino)pyrimidin-2-yl)amino)-4-methoxyphenyl)-2-((3-oxopiperazin-1-yl)methyl)acrylamide]	≥ 250 nM	–	–
< 50 nM	< 50 nM	< 50 nM	< 50 nM	< 50 nM	–	–	–	C=C(CN1CCOCC1)C(=O)Nc1ccc(OC)c(Nc2ncc(Cl)c(Nc3ccccc3P(C)(C)=O)n2)c1 [Example 48, N-(3-((5-chloro-4-((2-(dimethylphosphoryl)phenyl)amino)pyrimidin-2-yl)amino)-4-methoxyphenyl)-2-(morpholinomethyl)acrylamide]	≥ 250 nM	–	–
–	–	–	< 50 nM	< 50 nM	< 50 nM	< 50 nM	< 50 nM	C=CC(=O)Nc1cc(Nc2ncc(Cl)c(Nc3ccccc3P(C)(C)=O)n2)c(C)cc1OC(COC)CN(C)C (stereo not shown) [Example 143]	–	≥ 250 nM	–
–	–	–	< 50 nM	< 50 nM	< 50 nM	< 50 nM	< 50 nM	C=CC(=O)Nc1cc(Nc2ncc(Cl)c(Nc3ccccc3P(C)(C)=O)n2)c(OC)cc1C#CCN1CCCCC1 [Example 167, N-(5-((5-chloro-4-((2-(dimethylphosphoryl)phenyl)amino)pyrimidin-2-yl)amino)-4-methoxy-2-(3-(piperidin-1-yl)prop-1-yn-1-yl)phenyl)acrylamide]	–	< 50 nM	–
≥ 250 nM	≥ 250 nM	≥ 250 nM	≥ 250 nM	≥ 250 nM	–	–	–	COc1ccc(NC(=O)/C=C/C2(NC(=O)OC(C)(C)C)CC2)cc1Nc1ncc(Cl)c(Nc2ccccc2P(C)(C)=O)n1 [Example 76, (E)-tert-butyl (1-(3-((3-((5-chloro-4-((2-(dimethylphosphoryl)phenyl)amino)pyrimidin-2-yl)amino)-4-methoxyphenyl)amino)-3-oxoprop-1-en-1-yl)cyclopropyl)carbamate]	≥ 250 nM	–	–
–	–	–	< 50 nM	< 50 nM	< 50 nM	< 50 nM	< 50 nM	C=CC(=O)Nc1cc(Nc2ncc(Cl)c(Nc3ccccc3P(C)(C)=O)n2)c(OC)cc1C#CCN(C)CC [Example 162, N-(5-((5-chloro-4-((2-(dimethylphosphoryl)phenyl)amino)pyrimidin-2-yl)amino)-2-(3-(ethyl(methyl)amino)prop-1-yn-1-yl)-4-methoxyphenyl)acrylamide]	–	≥ 250 nM	–
< 50 nM	< 50 nM	< 50 nM	< 50 nM	< 50 nM	–	–	–	COc1ccc(NC(=O)/C=C/Cl)cc1Nc1ncc(Cl)c(Nc2ccccc2P(C)(C)=O)n1 [Example 78, (E)-3-chloro-N-(3-((5-chloro-4-((2-(dimethylphosphoryl)phenyl)amino)pyrimidin-2-yl)amino)-4-methoxyphenyl)acrylamide]	≥ 250 nM	–	–
< 50 nM	< 50 nM	< 50 nM	101 to 250 nM	≥ 250 nM	–	–	–	C=CC(=O)Nc1cc(Nc2ncc(Cl)c(Nc3ccccc3P(C)(C)=O)n2)c(OC)cc1N1CCC(N2CCC(O)C2)C1 (stereo not shown) [Example 35, N-(5-((5-chloro-4-((2-(dimethylphosphoryl)phenyl)amino)pyrimidin-2-yl)amino)-2-(3-hydroxy-[1,3′-bipyrrolidin]-1′-yl)-4-methoxyphenyl)acrylamide]	≥ 250 nM	–	–
–	–	–	< 50 nM	–	< 50 nM	–	–	C=CC(=O)Nc1cc(Nc2ncc(Cl)c(Nc3ccccc3P(C)(C)=O)n2)c(Cl)cc1OC(COC)CN(C)C (stereo not shown) [Example 146, N-(4-chloro-5-((5-chloro-4-((2-(dimethylphosphoryl)phenyl)amino)pyrimidin-2-yl)amino)-2-((1-(dimethylamino)-3-methoxypropan-2-yl)oxy)phenyl)acrylamide]	–	–	≥ 250 nM
–	–	–	< 50 nM	< 50 nM	–	–	–	C=CC(=O)Nc1ccc(F)c(Nc2ncc(Cl)c(Nc3ccccc3P(C)(C)=O)n2)c1 [Example 54, N-(3-((5-chloro-4-((2-(dimethylphosphoryl)phenyl)amino)pyrimidin-2-yl)amino)-4-fluorophenyl)acrylamide]	≥ 250 nM	–	–
–	–	–	101 to 250 nM	≥ 250 nM	–	–	–	C=CC(=O)N1CCc2cc(OC)c(Nc3ncc(Cl)c(Nc4ccccc4P(C)(C)=O)n3)cc21 [Example 127, 1-(6-((5-chloro-4-((2-(dimethylphosphoryl)phenyl)amino)pyrimidin-2-yl)amino)-5-methoxyindolin-1-yl)prop-2-en-1-one]	–	≥ 250 nM	–
101 to 250 nM	< 50 nM	< 50 nM	≥ 250 nM	–	–	–	–	C=CC(=O)Nc1cc(Nc2ncc(Cl)c(Nc3ccccc3P(C)(C)=O)n2)c(OC)cc1OCCN1CCN(C)CC1 [Example 2, N-(5-((5-chloro-4-((2-(dimethylphosphoryl)phenyl)amino)pyrimidin-2-yl)amino)-4-methoxy-2-(2-(4-methylpiperazin-1-yl)ethoxy)phenyl)acrylamide]	≥ 250 nM	–	–
–	–	–	–	–	< 50 nM	< 50 nM	< 50 nM	C=CC(=O)Nc1cc(Cc2ncc(Cl)c(Nc3ccccc3P(C)(C)=O)n2)c(OC)cc1C#CCN(C)C(C)(C)C [Example 177, N-(2-(3-(tert-butyl(methyl)amino)prop-1-yn-1-yl)-5-((5-chloro-4-((2-(dimethylphosphoryl)phenyl)amino)pyrimidin-2-yl)methyl)-4-methoxyphenyl)acrylamide]	–	≥ 250 nM	–
–	–	–	< 50 nM	< 50 nM	–	–	–	C=CC(=O)Nc1cc(Nc2ncc(Cl)c(Nc3ccccc3P(C)(C)=O)n2)c(OC)cc1OCC1CCCN1C (stereo not shown) [Example 18, N-(5-((5-chloro-4-((2-(dimethylphosphoryl)phenyl)amino)pyrimidin-2-yl)amino)-4-methoxy-2-((1-methylpyrrolidin-2-yl)methoxy)phenyl)acrylamide]	≥ 250 nM	–	–
–	–	–	101 to 250 nM	≥ 250 nM	–	–	–	C=CC(=O)Nc1cc(Nc2ncc(Cl)c(Nc3ccccc3P(C)(C)=O)n2)c(OC)cc1OCC(CO)N(C)C (stereo not shown) [Example 66, N-(5-((5-chloro-4-((2-(dimethylphosphoryl)phenyl)amino)pyrimidin-2-yl)amino)-2-(2-(dimethylamino)-3-hydroxypropoxy)-4-methoxyphenyl)acrylamide]	≥ 250 nM	–	–
–	–	–	< 50 nM	–	< 50 nM	–	–	C=CC(=O)Nc1cc(Nc2ncc(Cl)c(Nc3ccccc3P(C)(C)=O)n2)c(C)cc1OC(COC)CN(C)C (stereo not shown) [Example 144, N-(5-((5-chloro-4-((2-(dimethylphosphoryl)phenyl)amino)pyrimidin-2-yl)amino)-2-((1-(dimethylamino)-3-methoxypropan-2-yl)oxy)-4-methylphenyl)acrylamide]	–	–	≥ 250 nM
–	–	–	50 to 100 nM	101 to 250 nM	–	–	–	C=CC(=O)Nc1cc(Nc2ncc(Cl)c(Nc3ccccc3P(C)(C)=O)n2)c(OC)cc1OC1CN(C)C1 [Example 17, N-(5-((5-chloro-4-((2-(dimethylphosphoryl)phenyl)amino)pyrimidin-2-yl)amino)-4-methoxy-2-((1-methylazetidin-3-yl)oxy)phenyl)acrylamide]	≥ 250 nM	–	–
–	–	–	–	–	< 50 nM	< 50 nM	< 50 nM	C=CC(=O)Nc1cc(Cc2ncc(Cl)c(Nc3ccccc3P(C)(C)=O)n2)c(OC)cc1C#CCN1CCC(C)CC1 [Example 176, N-(5-((5-chloro-4-((2-(dimethylphosphoryl)phenyl)amino)pyrimidin-2-yl)methyl)-4-methoxy-2-(3-(4-methylpiperidin-1-yl)prop-1-yn-1-yl)phenyl)acrylamide]	–	≥ 250 nM	–
